Laboratory results taken from BindingDB's records for PubMed 3010074 (Warner-Lambert/Parke-Davis Pharmaceutical Research, 1986).

What follows are molecules tested against Adenosine receptor A2a (Homo sapiens, UniProt P29274).
Chain of Adenosine receptor A2a (Homo sapiens, UniProt P29274) (P29274 whole entry): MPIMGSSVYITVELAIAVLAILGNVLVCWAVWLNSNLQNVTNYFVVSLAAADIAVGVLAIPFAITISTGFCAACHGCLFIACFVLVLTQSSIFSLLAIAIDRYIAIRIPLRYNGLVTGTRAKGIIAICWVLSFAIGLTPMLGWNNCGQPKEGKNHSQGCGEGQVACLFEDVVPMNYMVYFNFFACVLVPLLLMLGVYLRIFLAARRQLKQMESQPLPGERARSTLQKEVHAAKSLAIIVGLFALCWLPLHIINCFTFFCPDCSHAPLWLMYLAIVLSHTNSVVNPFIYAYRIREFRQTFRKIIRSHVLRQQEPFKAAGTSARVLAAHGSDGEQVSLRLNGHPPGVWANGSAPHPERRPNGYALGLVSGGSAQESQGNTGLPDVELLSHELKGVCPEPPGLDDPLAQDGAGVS

Row | Compound | Ki [µM]
1 | CCn1c(=O)c2c(ncn2C)n(C)c1=O [NSC_93219] | > 10
2 | CC(C)Cn1c(=O)n(C)c(=O)c2[nH]cnc21 [1-methyl-3-(2-methylpropyl)-2,3,6,7-tetrahydro-1H-purine-2,6-dione] | > 10
3 | Cn1c(=O)c2[nH]c(-c3ccc(C(=O)O)cc3)nc2n(C)c1=O [8-(4-Carboxyphenyl)theophylline] | 7.26
4 | CCn1c(=O)c2nc[nH]c2n(CC)c1=O [NSC_101420] | > 10
5 | Cn1c(=O)c2[nH]c(-c3ccc(Cl)cc3)nc2n(C)c1=O | 0.371
6 | Cn1c(=O)c2nc(-c3cccs3)[nH]c2n(C)c1=O [CAS_267102] | 1.58
7 | Cn1c(=O)c2[nH]c(-c3ccc(S(=O)(=O)O)cc3)nc2n(C)c1=O [4-(1,3-Dimethyl-2,6-dioxo-2,3,6,7-tetrahydro-1H-purin-8-yl)-benzenesulfonic acid] | > 10
8 | Cn1c(=O)c2nc(-c3ccccc3N)[nH]c2n(C)c1=O [8-(2-Aminophenyl)theophylline] | 1.43
9 | CCCCNc1c(C(=O)OCC)cnc2c1cnn2CC [ethyl 4-(butylamino)-1-ethyl-1H-pyrazolo[3,4-b]pyridine-5-carboxylate] | 2.24
10 | O=c1nc2[nH]c3ccccc3nc-2c(=O)[nH]1 | 2.72
11 | Cn1c(=O)c2[nH]c(-c3ccc([N+](=O)[O-])cc3)nc2n(C)c1=O [8-(4-Nitrophenyl)theophylline] | 2.52
12 | CCCn1c(=O)c2nc(-c3ccc(N)cc3N)[nH]c2n(CCC)c1=O | 0.214
13 | Cn1c(=O)c2[nH]c(-c3ccc(N)cc3)nc2n(C)c1=O | 0.391
14 | COc1ccc(-c2nc3c([nH]2)c(=O)n(C)c(=O)n3C)cc1 [8-(4-methoxyphenyl)-1,3-dimethyl-1H-purine-2,6(3H,7H)-dione] | 0.419
15 | Cn1c(=O)[nH]c2nc[nH]c2c1=O [1-Methyl-3,9-dihydro-purine-2,6-dione(1-methylxanthine)] | > 10
16 | CCCCn1c(=O)c2c(ncn2C)n(C)c1=O [NSC_70835] | > 10
17 | CCCCNc1c(C(=O)OCC)c(C)nc2c1cnn2CC [NSC_5522] | 1.56
18 | CCCc1nc2c([nH]1)c(=O)n(C)c(=O)n2C | > 10
19 | CCCn1c(=O)c2[nH]c(-c3ccc(Cl)cc3N)nc2n(CCC)c1=O [NSC_92411] | 0.0919
20 | Cn1c(=O)c2c(ncn2CCCl)n(C)c1=O [7-(2-Chloroethyl)theophylline] | > 10

What follows are molecules tested against Adenosine receptor A2a (Rattus norvegicus, UniProt P30543).
Chain of Adenosine receptor A2a (Rattus norvegicus, UniProt P30543) (P30543 whole entry): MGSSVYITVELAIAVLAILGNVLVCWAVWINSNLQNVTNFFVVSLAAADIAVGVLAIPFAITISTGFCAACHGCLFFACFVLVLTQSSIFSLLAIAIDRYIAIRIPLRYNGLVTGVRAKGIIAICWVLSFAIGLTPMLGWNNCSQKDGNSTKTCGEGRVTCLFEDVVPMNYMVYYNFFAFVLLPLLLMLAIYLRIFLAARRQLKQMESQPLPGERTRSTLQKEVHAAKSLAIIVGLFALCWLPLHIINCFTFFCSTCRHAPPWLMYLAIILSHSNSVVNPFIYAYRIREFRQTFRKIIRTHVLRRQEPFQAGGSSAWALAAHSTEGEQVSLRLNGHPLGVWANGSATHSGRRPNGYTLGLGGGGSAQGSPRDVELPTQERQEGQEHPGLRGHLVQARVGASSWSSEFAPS

Row | Compound | Ki [µM]
21 | Nc1ncnc2c1ncn2[C@@H]1O[C@H](CI)[C@@H](O)[C@H]1O [5'-Deoxy-5'-iodoado] | 0.637
22 | COc1ccc(-c2nc(N)c3ncn([C@@H]4O[C@H](CO)[C@@H](O)[C@H]4O)c3n2)cc1 [2-(4-Methoxyphenyl)ado (CV-1674)] | 0.605
23 | Nc1nccc2c1SCN2[C@@H]1O[C@H](CO)[C@@H](O)[C@H]1O [7-Thia-9deazaado] | > 10
24 | Nc1nccc2c1ncn2[C@@H]1O[C@H](CO)[C@@H](O)[C@H]1O [CAS_6736-58-9] | > 10
25 | CC(=O)OCC1O[C@@H](n2cnc3c(N)ncnc32)[C@H](O)[C@@H]1O (some centres undefined) [5'-O-Acetylado] | 4.51
26 | Nc1ncnc2c1ncn2[C@@H]1O[C@H](NC(=O)C2CCCCC2)[C@@H](O)[C@H]1O [Ado-5'-cyclohexylcarboxamide] | 4.3
27 | NC(=O)CCOC[C@H]1O[C@@H](n2cnc3c(N)ncnc32)[C@H](O)[C@@H]1O [Ado-5'-(2-hydroxyethyl)carboxamide] | 0.0575
28 | CCC(=O)OC[C@H]1O[C@@H](n2cnc3c(N)ncnc32)[C@H](O)[C@@H]1O [Ado-5'-ethylcarboxylate] | 0.387
29 | Nc1ncnc2c1ncn2[C@@H]1O[C@H](CNC(=O)C2CC2)[C@@H](O)[C@H]1O [Ado-5'-cyclopropylcarboxamide] | 0.0134
30 | NC(=O)OC[C@H]1O[C@@H](n2cnc3c(N)ncnc32)[C@H](O)[C@@H]1O [Ado-5'-carboxamide] | 0.12
31 | OC[C@H]1O[C@@H](n2cnc3c(NCc4ccccc4)ncnc32)[C@H](O)[C@@H]1O [N6-benzylado] | 0.285
32 | O=c1[nH]c2c(ncn2[C@@H]2O[C@H](CO)[C@@H](O)[C@H]2O)c2nccn12 [1,N6-Ehteno-2-oxoado] | > 10
33 | Cn1c(N)c2ncn([C@@H]3O[C@H](CO)[C@@H](O)[C@H]3O)c2nc1=O [1-Methyl-2-oxoado] | 3.25
34 | Nc1nc(NC2CCCC2)nc2c1ncn2[C@@H]1O[C@H](CO)[C@@H](O)[C@H]1O | 0.462
35 | CSC[C@H]1O[C@@H](n2cnc3c(N)nc(Cl)nc32)[C@H](O)[C@@H]1O [2-Chloro-5'-methylthioado] | 1.88
36 | Nc1ncnc2c1ncn2[C@@H]1O[C@H](CO[N+](=O)[O-])[C@@H](O)[C@H]1O [5'-O-Nitroado] | 0.335
37 | CSC[C@H]1O[C@@H](n2cnc3c(N)ncnc32)[C@H](O)[C@@H]1O [(2R,3R,4S,5S)-2-(6-aminopurin-9-yl)-5-(methylsulfanylmethyl)oxolane-3,4-diol] | 1.1
38 | Nc1nc(=O)[nH]c2c1ncn2[C@@H]1O[C@H](CO)[C@@H](O)[C@H]1O [CAS_1818-71-9] | 0.331
39 | CNc1ncnc2c1ncn2[C@H]1C[C@H](O)[C@@H](CO)O1 [2'-Deoxy-N6-methylado] | > 10
